What was measured:
[1] = test system: Cytochrome P-450 3A4; conditions: in vivo; cited from earlier work
[2] = test system: PC9 cell line; test: PC9 duration of response study, T75 flask format; assay type: cell-based, human; conditions: method of Example 2 (PF-06747775 600 nM, palbociclib 100 nM)
[3] = test system: H1975 cell line; test: H1975 duration of response study, T75 flask format; assay type: cell-based, human; conditions: for Time Elapsed: H1975, T75 flask, single agent: 100 nM palbociclib or 600 nM PF-06747775; for delay in time required to reach a specific total cell number compared to DMSO control (FIG. 1) / number of days for 5×10^5 cells to grow to 8×10^6 cells, Independent Experiment Number 1 / number of days for 5×10^5 cells to grow to 8×10^6 cells, Independent Experiment Number 2: H1975, PF-06747775 600 nM, palbociclib 100 nM, single agents or combination
Protocol: (§1) This experimental approach provides a model of DOR and a means for testing whether combination regimens can increase or extend DOR (Tricker E M, Xu C, Uddin S, et al. Combined EGFR/MEK Inhibition Prevents the Emergence of Resistance in EGFR-Mutant Lung Cancer. Cancer Discov 2015; 5(9):960-71). […] Two different assay formats were used to facilitate quantitative assessment of time to regrowth and to address reproducibility in orthogonal formats.
H1975 cells were seeded (5×10^5 cells per flask) in T75 flasks (one or two flasks per treatment condition). […] Time was monitored. When growth reached 70-90% confluence, the cells were harvested, counted, and half of the collected cells were used to seed a fresh T75 flask. Once growth reached 70-90% confluence again, this process was repeated, then repeated again and again until a constant growth rate was achieved. Results were plotted as total live cells counted over time, for example, at each harvest, the cell number counted at that harvest was added to previous cell count numbers, then plotted as total live cells at that time point.

[4] = test system: HCC4006 cell line; test: HCC4006 duration of response study, T75 flask format; assay type: cell-based, human; conditions: method of Example 2 (PF-06747775 600 nM, palbociclib 100 nM)
[5] = test system: H1975 xenograft tumors; test: H1975 xenograft model, tumor growth inhibition; assay type: in vivo, nude/nude (nu/nu) female mice; conditions: oral, daily
Source text: Four- to six-week-old nude/nude (nu/nu) female mice were obtained from Charles River Laboratories (Hollister, Calif., USA) and maintained in pressurized ventilated caging at the Pfizer La Jolla animal facility. All studies were approved by Pfizer Institutional Animal Care and Use Committees. Xenograft tumors were established by subcutaneously implanting 5×10^6 H1975 cells suspended 1:1 (v/v) with reconstituted basement membrane (Matrigel, BD Biosciences) in nu/nu mice. […] Tumor dimensions were measured with vernier calipers and tumor volumes were calculated using the formula of π/6×larger diameter x (smaller diameter)^2. […] Tumor regression percentage was calculated as 100×(1−ΔT/starting tumor size).

[6] = test system: H1975 cell line; test: H1975 duration of response study, 96-well plate format; assay type: cell-based, human; conditions: PF-06747775 600 nM, palbociclib 100 nM, single agents or combination
Source text: as §1
A 96-well plate format assay was adapted from a published report (Tricker, E., et al., “Combined EGFR/MEK Inhibition Prevents the Emergence of Resistance in EGFR-Mutant Lung Cancer,” Cancer Discovery, 2015, 960-971, vol. 5, no. 9). […] Time was monitored. […] Non-terminal reading of live cells was conducted weekly using an IncuCyte instrument (microscopy-based cell counting, Essen Bioscience, Ann Arbor, Mich., USA). At selected time points throughout the treatment duration, a terminal reading of live cells by Cell Titer Glow method (cell ATP-based counting, Promega, Madison, Wis., USA) was used to confirm cell counts over time and at the end of study. Results were plotted as percent of wells reaching a designated confluency (e.g. 50% confluent) at different time points throughout the treatment period.

[7] = Plasma drug levels in H1975 xenograft study (blood samples day 15)
[8] = test system: HCC827 cell line; test: HCC827 duration of response study, T75 flask format; assay type: cell-based, human; conditions: method of Example 2 (PF-06747775 600 nM, palbociclib 100 nM)

| Plasma Average Free Drug Concentration Over the 24 hour Dosing Interval, PF-06747775 ([7]; PF-06747775 10/20 mpk alone) [nM] | Plasma Average Free Drug Concentration Over the 24 hour Dosing Interval, Palbociclib ([7]; Palbo 7 mpk alone) [nM] | Plasma Average Free Drug Concentration Over the 24 hour Dosing Interval, Palbociclib ([7]; Palbo 22 mpk alone) [nM] | Plasma Average Free Drug Concentration Over the 24 hour Dosing Interval, Palbociclib ([7]; Palbo 70 mpk alone) [nM] | Structure (SMILES) | metabolism by Cytochrome P-450 3A4 [1] | PC9 Time elapsed (days) for 5×10^5 cells to grow to 8×10^6 cells [2] [days] | Time Elapsed [3] [days] | delay in time required to reach a specific total cell number compared to DMSO control (FIG. 1) [3] | number of days for 5×10^5 cells to grow to 8×10^6 cells, Independent Experiment Number 1 [3] [days] | number of days for 5×10^5 cells to grow to 8×10^6 cells, Independent Experiment Number 2 [3] [days] | HCC4006 Time elapsed (days) for 5×10^5 cells to grow to 8×10^6 cells [4] [days] | anti-tumor efficacy of single agent after 10 days of dosing ([5]; PF-06747775 10 mpk, 10 days) | effect on tumor growth inhibition (TGI) (FIG. 2) ([5]; PF-06747775 single agent, 10/20 mpk (20 mpk from day 11)) | number of days for 350 cells per well to grow to 50% of the wells reaching 50% confluence, Independent Experiment Number 1 [6] [days] | number of days for 350 cells per well to grow to 50% of the wells reaching 50% confluence, Independent Experiment Number 2 [6] [days] | effect on tumor growth inhibition (TGI) (FIG. 2) ([5]; palbociclib single agent, 70 mpk) | effect on tumor growth inhibition (TGI) (FIG. 2) ([5]; palbociclib single agent, lower doses (22 mpk and 7 mpk)) | HCC827 (independent experiment) Number 1 (days) for 5×10^5 cells to grow to 8×10^6 cells [8] [days] | HCC827 (independent experiment) Number 2 (days) for 5×10^5 cells to grow to 8×10^6 cells [8] [days] |
| --- | --- | --- | --- | --- | --- | --- | --- | --- | --- | --- | --- | --- | --- | --- | --- | --- | --- | --- | --- |
| 95 |  |  |  | C=CC(=O)N[C@@H]1CN(c2nc(Nc3cn(C)nc3OC)c3ncn(C)c3n2)C[C@H]1F [PF-06747775, N-((3R,4R)-4-fluoro-1-(6-((3-methoxy-1-methyl-1H-pyrazol-4-yl)amino)-9-methyl-9H-purin-2-yl)pyrrolidin-3-yl)acrylamide] | metabolized in vivo by this same enzyme | 73 | 21 | significant delay | 15 | 21 | 51 | less than the desired comparator level | moderate effect | 16 | 19 |  |  |  |  |
|  | 6 | 45 | 127 | CC(=O)c1c(C)c2cnc(Nc3ccc(N4CCNCC4)cn3)nc2n(C2CCCC2)c1=O [palbociclib, 6-acetyl-8-cyclopentyl-5-methyl-2-(5-piperazin-1-yl-pyridin-2-ylamino)-8H-pyrido[2,3-d]pyrimidin-7-one] |  | 5 | 5 | slight delay, if any | 4 | 5 | 18 |  |  | 7 | 7 | minor effect | no effect | 11 | 11 |
